Laboratory results from article PMC3664642, “A Peptide against Soluble Guanylyl Cyclase α1: A New Approach to Treating Prostate Cancer” (PLoS ONE, 2013).
Where no end group is shown, it is not given here.

Tests used:
[1] = test system: C81 cells; test: NAC rescue of proliferation of Peptide A-8R-treated cells (MTT); type: cell-based; conditions: 50 µM vs 10 and 25 µM
Method: (§1) For proliferation, cells were grown in medium containing 2% FBS extracted with dextran-coated charcoal (DCC). 48 hours later, ethanol or 1 nM R1881 was added to the cells followed by peptide treatment. The MTT assay (Sigma) was used as before to determine cell number. For apoptosis, 5000 cells were seeded in 96-well plates and treated with Vehicle (DMSO), Peptide A-8R (25 µM), Etoposide (50 µM) (Sigma) at different time points. The Caspase (3/7) activity was measured using Apo-ONE Homogeneous Caspase-3/7 assay kit (Promega). PARP cleavage was also used to measure apoptosis, and is described below.
Intracellular ROS levels were evaluated using the fluorescent probe 5-(and-6)-chloromethyl-2′,7′-dichlorodihydrofluorescein diacetate (CM-H2DCFDA) (Invitrogen). After treatments with Peptide A-8R, C81 cells were loaded with 20 µM CM-H2DCFDA and incubated at 37°C for 30 min in the dark. Cells were then washed with PBS and fluorescence was measured at the excitation and emission wavelengths of 490 and 535 nm, respectively, using a multi-well fluorescence plate reader. For NAC (N-acetyl cysteine) (Sigma) rescue experiment, cells were pretreated with 1 or 5 mM NAC for 2 hours before adding Peptide A-8R.
Figure 4 Peptide A-8R kills prostate cancer cells by mediating ROS generation. (A) C81 cells were treated with Vehicle or different µMolar concentrations of Peptide A-8R and without or with 0–5 mM NAC and monitored for ROS generation after 0–30 min as measured by fluorescence intensity (FI). Bar graphs represent averages of three independent experiments plus standard deviations. Note that asterisks on bar graphs found with NAC are compared to equivalent data without NAC. (B) C81 cells were treated with Vehicle or different concentrations of Peptide A-8R, as shown, and 0–5 mM NAC, as shown, and monitored for cell number after 0–6 days of incubation as measured by MTT assay. Data points represent averages of three independent experiments plus standard deviations. Asterisks indicate statistical significance (P<0.04). (C) C81 cells were treated with Vehicle or different concentrations of Peptide A-8R, as shown, and with or without 5 mM NAC, as shown, and monitored DNA damage after 1 hr incubation as measured by Comet assay.

[2] = test system: Caspase 3/7 activity in LNCaP cells; test: Caspase 3/7 assay, LNCaP cells; type: cell-based; conditions: Fig. 5A; for increase in Caspase 3/7 activity: 10 µM, averages of three independent experiments, relative to first condition
Method: as §1
Figure 5 Peptide A-8R induces apoptosis of prostate cancer cells. (A) LNCaP, (B) PC-3, or (C) Cos cells were treated with Vehicle, Peptide A-8R (10 µM), or Etoposide (20 µM) for 0–24 hrs and subjected to a Caspase assay to measure apoptosis. Bar graphs represent averages of three independent experiments plus standard deviations. All activities are relative to the first condition, and this activity was set to 1. Asterisks indicate statistical significance (P<0.005). (D) LNCaP cells were treated with Vehicle, Peptide C-8R, Peptide A-8R, or Etoposide (each drug at 50 µM) for 8 hrs and monitored for apoptosis by measuring PARP cleavage using Western blotting. Note that β-actin was used to control for protein loading.
Supplementary file pone.0064189.s005.tif: Figure S5 ROS generation is not induced by Peptide A-8R in PC-3 cells and Peptide C-8R in LNCaP cells. (A) PC-3 cells were treated with Vehicle or different concentrations of Peptide A-8R or Peptide C-8R, as shown, or (B) LNCaP cells were treated with Vehicle or different concentrations of Peptide A-8R or Peptide C-8R, or H2O2 and monitored for ROS generation after 0–30 (A) or 30 (B) min. (C) LNCaP cells were treated with Vehicle, Peptide C-8R (10 µM), Peptide A-8R (10 µM), or Etoposide (100 µM) for 0–8 hrs and subjected to a Caspase assay to measure apoptosis. Bar graphs represent averages of three independent experiments plus standard deviations. (C) All activities are relative to the first condition, and this activity was set to either 1. Asterisks indicate statistical significance (P<0.006) of all values compared to Vehicle (B) or to 0 hour (C). (TIF) Click here for additional data file.

## Ac-TFCKAFPFHIIRRRRRRRR [Peptide A-8R]
[1]
  cytotoxicity at 50 µM relative to lower concentrations: strongest cytotoxic activity
[2]; 1 hour
  increase in Caspase 3/7 activity: 2 fold
[2]; 8 hrs
  increase in Caspase 3/7 activity: ~4 fold
[2]
  speed of Caspase 3/7 induction relative to Etoposide: much faster than the well-studied apoptosis-inducing drug Etoposide
[2]; Peptide 10 µM, Etoposide 20 µM, 24 hrs
  Caspase 3/7 activity: diminished to Vehicle levels
